From patent US20170152226A1, “FUNCTIONALISED AND SUBSTITUTED INDOLES AS ANTI-CANCER AGENTS” (Novogen Ltd., priority 2014, published 2017)

Tests used:
DU145 = test: Anti-proliferative activity, cell-titre luminescent viability assay; format: cell-based; details: Homo sapiens, DU-145, 72 h, 0.03, 0.3, 3 and 30 μM, linear regression of semi-log plots, read-out: IC50 Prostate DU145
How it was run: (§1)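 Cells attached for 24 h at 37° C, 5% CO2, then received compound (0.03, 0.3, 3, 30 μM, or 0.1–30 μM in six steps) for 72 h. Viability was read by cell-titre luminescence after 30 min and normalized to untreated or vehicle control. IC50 came from linear regression of semi-log plots, or EC50 from variable-slope sigmoidal nonlinear regression, depending on compound.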

PC3 = test: as above; format: cell-based; details: Homo sapiens, PC-3, 72 h, 0.03, 0.3, 3 and 30 μM, linear regression of semi-log plots, read-out: IC50 Prostate PC3
How it was run: as §1

MDA-MB-231 = test: as above; format: cell-based; details: Homo sapiens, MDA-MB-231, 72 h, 0.03, 0.3, 3 and 30 μM, linear regression of semi-log plots, read-out: IC50 Breast MDA-MB-231
How it was run: as §1

A549 = test: as above; format: cell-based; details: Homo sapiens, A549, 72 h, 0.03, 0.3, 3 and 30 μM, linear regression of semi-log plots, read-out: IC50 Lung (NSLC) A549
How it was run: as §1

SK-Mel-28 = test: as above; format: cell-based; details: Homo sapiens, SK-MEL-28; 72 hours; 0.03, 0.3, 3 and 30 μM; linear regression of semi-log plots; read-out: IC50 Melanoma SK-Mel-28
How it was run: as §1

CaCo2 = test: as above; format: cell-based; details: Homo sapiens, Caco-2, 72 h, 0.03, 0.3, 3 and 30 μM, linear regression of semi-log plots, read-out: IC50 Colorectal CaCo2
How it was run: as §1

SK-N-SH = test: as above; format: cell-based; details: Homo sapiens, SK-N-SH, 72 h, 0.03, 0.3, 3 and 30 μM, linear regression of semi-log plots, read-out: IC50 Neuroblastoma SK-N-SH
How it was run: as §1

CHLA20 tumours = test: CHLA20 neuroblastoma xenograft model; format: in vivo; details: 150 mg/kg IP daily, 18 days
Method: FIG. 4: Compound 3507/30% w/v Dexolve-7 was administered IP daily at 150 mg/kg for 18 days in a flank xenograft model of neuroblastoma (CHLA-20). Tumour volume was measured every 2-3 days.
The in vivo efficacy of compound 3507 was evaluated in the CHLA20 neuroblastoma xenograft model. CHLA20 tumours were established in athymic nude mice by injecting 1.0×10^7 tumour cells subcutaneously in the right flank. Dosing of animals commenced when tumour volume reached ˜200-400 mm^3. Animals (˜n=5+) were randomly divided into treatment and control groups. Compound 3507 was dosed daily by intraperotineal (IP) injection at 150 mg/kg in 30% w/v Captisol (a cyclodextrin-containing formulation).

SKMEL13 = test: Anti-proliferative activity, MTS viability assay; format: cell-based; details: 72 hours exposure, read-out: IC50 Melanoma SKMEL13
Method: (§2) The anti-proliferative activity of compound 3507 was further evaluated in cell lines representative of melanoma, prostate cancer, leukaemia and neuroblastoma. Cell viability after 72 hours exposure to increasing concentrations of compound 3507 was measured using an MTS viability assay. Cell viability was normalized to control (vehicle alone) and dose-response curves, and relative inhibitory concentration (IC50) values were determined using GraphPad Prism 6.

LNCaP = test: Anti-proliferative activity, MTS viability assay; format: cell-based; details: Homo sapiens, 72 hours exposure, read-out: IC50 Prostate LNCaP
Method: as §2

CHLA-90 = test: Anti-proliferative activity, MTS viability assay; format: cell-based; details: 72 hours exposure, read-out: IC50 Neuroblastoma CHLA-90
Method: as §2

THP-1 = test: Anti-proliferative activity, MTS viability assay; format: cell-based; details: Homo sapiens, 72 hours exposure, read-out: IC50 Leukemia THP-1
Method: as §2

SK-N-Be(2) = test: Anti-proliferative activity, MTS viability assay; format: cell-based; details: Homo sapiens, SKNBE2, 72 hours exposure, read-out: IC50 Neuroblastoma SK-N-Be(2)
Method: as §2

BL = test: Anti-proliferative activity, MTS viability assay; format: cell-based; details: 72 hours exposure, read-out: IC50 Melanoma BL
Method: as §2

HL-60 = test: Anti-proliferative activity, MTS viability assay; format: cell-based; details: Homo sapiens, 72 hours exposure, read-out: IC50 Leukemia HL-60
Method: as §2

P4E6 = test: Anti-proliferative activity, MTS viability assay; format: cell-based; details: 72 hours exposure, read-out: IC50 Prostate P4E6
Method: as §2

K562 = test: Anti-proliferative activity, MTS viability assay; format: cell-based; details: Homo sapiens, 72 hours exposure, read-out: IC50 Leukemia K562
Method: as §2

D20 = test: Anti-proliferative activity, MTS viability assay; format: cell-based; details: 72 hours exposure, read-out: IC50 Melanoma D20
Method: as §2

CHP-134 = test: Anti-proliferative activity, MTS viability assay; format: cell-based; details: Homo sapiens, 72 hours exposure, read-out: IC50 Neuroblastoma CHP-134
Method: as §2

BPH-1 = test: Anti-proliferative activity, MTS viability assay; format: cell-based; details: Homo sapiens, 72 hours exposure, read-out: IC50 Prostate BPH-1
Method: as §2

Q: `Cc1c(C)n(CCCN2CCN(C)CC2)c2ccc(Oc3cccc(C(=O)N4CCN(CCc5ccc(F)cc5)CC4)c3)cc12` [Compound 3507, (3-((2,3-dimethyl-1-(3-(4-methylpiperazin-1-yl)propyl)-1H-indol-5-yl)oxy)phenyl)(4-(4-fluorophenethyl)piperazin-1-yl)methanone] was tested. Which IC50 (DU145) did it give?
A: 1300 nM

Q: What about the IC50 (PC3) of the same molecule?
A: 1200 nM

Q: And the IC50 (MDA-MB-231)?
A: 1400 nM

Q: And the IC50 (A549)?
A: 1200 nM

Q: What about the IC50 (SK-Mel-28) of the same molecule?
A: 1000 nM

Q: What about the IC50 (CaCo2) of the same molecule?
A: 2500 nM

Q: What about the IC50 (SK-N-SH) of the same molecule?
A: 1400 nM

Q: And the tolerability (CHLA20 tumours)?
A: well tolerated

Q: And the IC50 (SKMEL13)?
A: 3720 nM

Q: And the IC50 (LNCaP)?
A: 590 nM

Q: And the IC50 (CHLA-90)?
A: 4240 nM

Q: What about the IC50 (THP-1) of the same molecule?
A: 800 nM

Q: What about the IC50 (SK-N-Be(2)) of the same molecule?
A: 5470 nM

Q: What about the IC50 (BL) of the same molecule?
A: 5830 nM

Q: And the IC50 (HL-60)?
A: 1160 nM

Q: What about the IC50 (P4E6) of the same molecule?
A: 870 nM

Q: And the IC50 (K562)?
A: 950 nM

Q: What about the IC50 (D20) of the same molecule?
A: 5010 nM

Q: And the IC50 (CHP-134)?
A: 7200 nM

Q: What about the IC50 (BPH-1) of the same molecule?
A: 720 nM
